“Also recorded” adds a separate entry of the source. Values belong to the compound of their own block, whether it stands above or below them. Residues, ends and D or L forms follow the SMILES beside them. *: point of attachment. Cbz = O=C(OCc1ccccc1)*
Experiments:
GS [1] = experiment: Glutamine-induced GS degradation in glutamine-starved H1299 cells with Torin1 and CB5083; format: cell-based
Method: FIG. 8A depicts a Western blot. Glutamine-starved H1299 cells, pre-treated with 250 nM Torin1 and 10 μM CB5083 for 0.5 h, were stimulated with 4 mM glutamine for 4 h. Cell extracts were analyzed by IB with the indicated antibodies.

GS [2] = experiment: GS ubiquitylation in USP15-/- 293FT cells, TUBE2 pulldown; format: cell-based; conditions: for accumulation of ubiquitylated GS under CB-5083 with co-treatment: pre-treated 2 μM MLN4924 or 2 mM MSO 0.5 h, then CB-5083 6 h
Source text: FIG. 3B depicts a Western blot. […] Total ubiquitylated proteins were purified using TUBE2-agarose.

GS [3] = conditions: Jurkat cells, treated 4 h; cited from earlier work
GSPT1 = experiment: CC-885-induced GSPT1 ubiquitylation and degradation in USP15-/- 293FT cells with inhibitors
GS [4] = experiment: Rescue of endogenous GS protein levels in USP15-KO 293FT cells, immunoblot; format: cell-based; conditions: 2 μM MLN4924 or 2 mM MSO
Method: Cell extracts were analyzed by IB with the indicated antibodies.

GS [5] = experiment: GS stability in mTOR-shRNA 293FT cells treated with MLN4924 or MSO; format: cell-based; conditions: mTOR-shRNA TRIPZ_3 293FT cells, treated 14 h
Method: Cells were treated with different concentrations of MLN4924 for 14 h. Cell extracts were analyzed by IB with the indicated antibodies.
Cells were treated with different concentrations of MSO (G) for 14 h. Cell extracts were analyzed by IB with the indicated antibodies.

GS [6] = experiment: Glutamine-induced GS degradation in H1299 cells co-treated with DUB inhibitor and MLN4924; format: cell-based; conditions: 2 μM MLN4924 with NSC632839 or PR-619, 4 mM glutamine 8 h
Method: FIG. 1G depicts a Western blot. […] Cell extracts were analyzed by IB. The relative ratio of GS:Actin is shown.
FIG. 1H depicts a Western blot. […] Cell extracts were analyzed by IB. The relative ratio of GS:Actin is shown.

LN229 cells = conditions: no glutamine, MSO 2 mM, 5 days
Method: FIG. 3E depicts quantification of cell viability. […] An equal number of cells (1×10^6 cells in 10-cm plates) were then shifted to medium without glutamine in the presence (+) or absence (−) of the GS inhibitor MSO (2 mM) for 5 days, after which cell viability was quantified by staining with 0.4% Trypan blue. Cell viability was normalized to MSO-untreated control (−), which was set to 100%.

USP15 [7] = biological target: T1, USP15 (Homo sapiens, UniProt Q9Y4E8); experiment: In vitro deubiquitylation assay with recombinant USP15 (rUSP15); conditions: for activity of USP15 (deubiquitylation of polyubiquitylated GSPT1): 37° C., 0.5 h
T1 sequence (Q9Y4E8 1-981): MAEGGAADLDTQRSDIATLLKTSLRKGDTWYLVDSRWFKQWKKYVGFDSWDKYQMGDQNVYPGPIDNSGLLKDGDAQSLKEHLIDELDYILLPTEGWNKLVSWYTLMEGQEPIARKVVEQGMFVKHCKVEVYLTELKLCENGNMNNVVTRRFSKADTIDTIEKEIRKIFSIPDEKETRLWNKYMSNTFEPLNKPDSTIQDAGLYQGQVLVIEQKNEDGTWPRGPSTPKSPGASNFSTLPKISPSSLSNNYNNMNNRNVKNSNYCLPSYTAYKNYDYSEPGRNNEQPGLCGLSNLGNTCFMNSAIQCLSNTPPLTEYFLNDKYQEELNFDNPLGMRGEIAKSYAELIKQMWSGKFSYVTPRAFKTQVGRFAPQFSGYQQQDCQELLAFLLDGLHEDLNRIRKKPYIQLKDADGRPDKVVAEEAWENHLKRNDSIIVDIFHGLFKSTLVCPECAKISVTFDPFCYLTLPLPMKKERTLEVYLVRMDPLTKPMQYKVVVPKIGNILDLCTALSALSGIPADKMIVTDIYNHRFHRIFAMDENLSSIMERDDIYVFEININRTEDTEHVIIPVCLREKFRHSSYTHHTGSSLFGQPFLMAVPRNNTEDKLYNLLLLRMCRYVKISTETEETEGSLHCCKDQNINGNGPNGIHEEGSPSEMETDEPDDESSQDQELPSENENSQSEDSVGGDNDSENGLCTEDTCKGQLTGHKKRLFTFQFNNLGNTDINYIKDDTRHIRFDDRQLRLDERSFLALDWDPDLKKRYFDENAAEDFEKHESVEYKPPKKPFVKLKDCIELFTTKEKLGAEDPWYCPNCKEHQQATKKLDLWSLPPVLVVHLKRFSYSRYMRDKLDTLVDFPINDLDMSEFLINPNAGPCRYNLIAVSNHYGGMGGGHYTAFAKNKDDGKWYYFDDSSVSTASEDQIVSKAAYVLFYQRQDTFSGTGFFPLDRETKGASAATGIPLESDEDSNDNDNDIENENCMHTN
Source text: GSPT1(Ub)n: polyubiquitylated GSPT1.
SE and LE: short and long exposures. GSPT1(Ub)n: polyubiquitylated GSPT1.

GS [8] = experiment: Glutamine-induced GS ubiquitylation, TUBE2 pulldown and immunoblot in MCF7 cells; format: cell-based; conditions: MCF7 cells starved of glutamine 24 h; 40 μM NSC632839 or 20 μM PR-619 0.5 h, then 4 mM glutamine 2 h
Method: FIG. 1D depicts a Western blot. MCF7 cells, starved of glutamine for 24 h, were treated with MG132 (10 μM) and/or 40 μM NSC632839, 20 μM PR-619 for 0.5 h, followed by 4 mM glutamine treatment for 2 h. Total ubiquitylated proteins were purified using TUBE2-agarose, and then analyzed by IB with indicated antibodies. The relative ratio of ubiquitylated GS, GS(Ub)n to input GS, normalized to that of glutamine-treated cells in lane 2, are shown.

GS [9] = experiment: Endogenous GS protein level by immunoblot in glutamine-treated MCF7 cells; format: cell-based; conditions: MCF7 cells starved of glutamine 24 h; inhibitor 0.5 h, then 4 mM glutamine 10 h
Method: FIG. 1E depicts a Western blot. MCF7 cells, starved of glutamine for 24 h, were treated with NSC632839 for 0.5 h, followed by 4 mM glutamine treatment for 10 h. Cell extracts were analyzed by IB. The relative ratio of GS:Actin is shown.
FIG. 1F depicts a Western blot. MCF7 cells, starved of glutamine for 24 h, were treated with PR-619 for 0.5 h, followed by 4 mM glutamine treatment for 10 h. Cell extracts were analyzed by IB. The relative ratio of GS:Actin is shown.

[10] = system: cysteine protease DUBs, including USP15; conditions: cited from earlier work
RPMI8226 cells = experiment: RPMI8226 cell number/viability, PR-619 with lenalidomide, Trypan blue; format: cell-based; conditions: PR-619 1 μM with lenalidomide, 4 days
Source text: FIG. 6G depicts total cell number after different treatment conditions. […] Error bars represent the SEM of triplicates (P<0.003 by t test).

U266 cells = experiment: Neo-substrate degradation in U266 cells, PR-619 with lenalidomide, immunoblot; format: cell-based; conditions: PR-619 2 μM 1 h, lenalidomide 0, 2 and 10 μM 6 h
Method: FIG. 6L depicts a Western blot. […] Cell extracts were analyzed by SDS-PAGE and immunoblotting with indicated antibodies.

mTORC1 = experiment: Glutamine-induced serine phosphorylation of USP15^Flag and USP15-GS binding, IP in 293FT cells; format: cell-based
Method: FIG. 7B depicts a Western blot. 293FT cells, transfected with CT or USP15^Flag plasmid for 24 h, were grown in complete medium (C; 2 mM glutamine) or starved of glutamine for 24 h, then treated with Torin1 for 0.5 h, followed by 4 mM glutamine treatment for 1-2 h. Cell extracts were immunoprecipitated with anti-Flag. The relative ratios of phosphorylated serine USP15^Flag to total input USP15^Flag and endogenous GS interacted with USP15^Flag to input GS, normalized to that of untreated cells in lane 3, are shown.

USP15 [11] = experiment: USP15 S229 phosphorylation by mass spectrometry in 293FT cells; format: cell-based; conditions: 250 nM Torin1 16 h vs DMSO
Method: FIG. 10C depicts the phosphorylation peptide abundance calculated by phosphorylated peptides/(phosphorylated peptides+unmodified peptides)*100%. The abundance of S229 phosphorylation (P-S229) was calculated and represented as mean±SD; n=2 per group (p=0.01035 by t test).
To map the phosphorylation sites of USP15, which has 32 potential serine/threonine phosphorylation sites reported in ‘PhosphoSitePlus’ with the most prevalent serine 229, USP15^Flag was immune-purified from 293FT cells treated with DMSO or 250 nM Torin1 for 16 h and analyzed by MS analysis. […] Moreover, it represents an mTOR consensus sequence motif S/T-P (where S is serine; T is threonine; and P is proline) (FIG. 10B). […] Thus, the MS data were consistent with the other results, showing that USP15 was phosphorylated at serine in an mTORC1-dependent manner (FIG. 7B-7C).
MS analysis to identify the phosphorylation sites of USP15 was done at the Charles W. Gehrke proteomics center—University of Missouri, as described previously (Peterson T R, et al., Cell. 2009; 137(5):873-86. Epub 2009/05/19).

SMILES: Cc1cc2c(C(N)=O)cccc2n1-c1nc2c(c(NCc3ccccc3)n1)COCC2 [CB-5083]
- Torin-1-promoted glutamine-induced GS degradation with p97 inhibitor (GS [1]; H1299 cells, 10 μM CB5083 with 250 nM Torin1): blunted
- accumulation of ubiquitylated GS (GS [2]; 0.5 mM glutamine, CB-5083 6 h): accumulation of ubiquitylated GS was observed

SMILES: CC(C)C[C@@H](C=O)NC(=O)[C@H](CC(C)C)NC(=O)[C@H](CC(C)C)NC(=O)OCc1ccccc1 [MG132] (Cbz-Leu-Leu-Leu-aldehyde)
- GS ubiquitylation (SILAC ubiquitinome) (GS [3]): increased ubiquitylation of GS
- CC-885-induced degradation of GSPT1 (GSPT1; USP15-/- 293FT cells co-treated with CC-885 and inhibitor): blocked
- polyubiquitylated GSPT1 on co-treatment with CC-885 (GSPT1; USP15-/- 293FT cells, 10 μM CB-5083 or 20 μM MG132, 10 μM CC-885 3 h): polyubiquitylated GSPT1 was accumulated

SMILES: NS(=O)(=O)OC[C@@H]1C[C@@H](n2ccc3c(N[C@H]4CCc5ccccc54)ncnc32)C[C@@H]1O [MLN4924]
- downregulation of endogenous GS protein levels in USP15-KO cells (GS [4]): rescued
- effect of mTOR depletion by shRNA on GS stability (GS [5]): rescued the effect of mTOR depletion by shRNA on GS stability
- effect on action of DUB inhibitors on glutamine-induced GS degradation (GS [6]): blocked the action of DUB inhibitors on glutamine-induced GS degradation
- accumulation of ubiquitylated GS under CB-5083 with co-treatment (GS [2]): but not in cells co-treated with MLN4924 and MSO
- accumulation of polyubiquitylated GSPT1 (CC-885 with MG132 or CB-5083) in presence of MLN4924 (GSPT1; USP15-/- 293FT cells, 2 μM MLN4924): completely abolished

SMILES: CS(=N)(=O)CC[C@H](N)C(=O)O (stereo partly drawn) [MSO, L-Methionine sulfoximine]
- downregulation of endogenous GS protein levels in USP15-KO cells (GS [4]): rescued
- effect of mTOR depletion by shRNA on GS stability (GS [5]): rescued the effect of mTOR depletion by shRNA on GS stability
- accumulation of ubiquitylated GS under CB-5083 with co-treatment (GS [2]): but not in cells co-treated with MLN4924 and MSO
- cell viability, combined with USP15 depletion by shRNAs (LN229 cells; LN229 cells with USP15 shRNAs): synergistic inhibition of cell viability
- cell viability (LN229 cells; control LN229 cells): severe defect in cell viability

SMILES: CCN1C(=O)C=CC1=O [N-Ethylmaleimide]
- activity of USP15 (deubiquitylation of polyubiquitylated GSPT1) (USP15 [7]; NEM 20 mM (FIG. 5B legend)): completely inhibited

SMILES: Cc1ccc(/C=C2\CNC/C(=C\c3ccc(C)cc3)C2=O)cc1.Cl [NSC632839]
- glutamine-induced ubiquitylation of GS (GS [8]): promoted glutamine-induced ubiquitylation of GS
- protein levels of endogenous GS (GS [9]): decreased protein levels of endogenous GS

- activity of USP15 (deubiquitylation of polyubiquitylated GSPT1) (USP15 [7]; PR-619 100 μM): completely inhibited
SMILES: N#CSc1cc(SC#N)c(N)nc1N [PR-619]
- inhibition of DUB activity (previous study) [10]: can inhibit the activity of almost all cysteine protease DUBs, including USP15
- sensitization to lenalidomide (cell number/viability) (RPMI8226 cells): sensitized resistant cell line RPMI8226 to lenalidomide
- glutamine-induced ubiquitylation of GS (GS [8]): promoted glutamine-induced ubiquitylation of GS
- GS ubiquitylation (SILAC ubiquitinome) (GS [3]): decreased GS ubiquitylation; also recorded: decreased the ubiquitination of GS
- USP15 activity (USP15 [7]; PR-619 concentration range 1-20 μM): substantially suppressed USP15 activity in a dose-dependent manner
- protein levels of endogenous GS (GS [9]): decreased protein levels of endogenous GS
- degradation of neo-substrates on co-treatment with lenalidomide (U266 cells): significantly promoted degradation of neo-substrates

SMILES: CCC(=O)N1CCN(c2ccc(-n3c(=O)ccc4cnc5ccc(-c6cnc7ccccc7c6)cc5c43)cc2C(F)(F)F)CC1 [Torin1]
- glutamine-induced phosphorylated serine USP15^Flag (P-Ser-USP15) (mTORC1; Torin1 0.5 h then 4 mM glutamine 1-2 h): substantially abolished
- binding of USP15 to GS (mTORC1; Torin1-treated): significant reduction in binding of USP15 to GS
- glutamine-induced GS degradation (GS [1]; glutamine-starved H1299 cells, 250 nM Torin1, 4 mM glutamine 4 h): promoted glutamine-induced GS degradation
- S229 phosphorylation of USP15 (USP15 [11]): significantly decreased

From US20240245664A1, “METHODS OF USING USP15 INHIBITORS” (The Curators of the University of Missouri, priority 2021, published 2024)
